pIC50: −log10 of the molar value.
How the values were obtained:
[1] = target: T1, RAC-alpha serine/threonine-protein kinase (Homo sapiens, UniProt P31749); experiment: Inhibition of Akt1 by cellular assay
[2] = target: T2, RAC-beta serine/threonine-protein kinase (Homo sapiens, UniProt P31751); experiment: Inhibition of Akt2 by cellular assay
[3] = target: T1, RAC-alpha serine/threonine-protein kinase; experiment: Inhibition of Akt1
[4] = target: T2, RAC-beta serine/threonine-protein kinase; experiment: Inhibition of Akt2
[5] = target: Voltage-gated inwardly rectifying potassium channel KCNH2 (Homo sapiens, UniProt Q12809); experiment: Inhibition of human ERG in embryonic kidney cells by radioligand-binding competition assay
Sequence of Voltage-gated inwardly rectifying potassium channel KCNH2 (Q12809 whole entry): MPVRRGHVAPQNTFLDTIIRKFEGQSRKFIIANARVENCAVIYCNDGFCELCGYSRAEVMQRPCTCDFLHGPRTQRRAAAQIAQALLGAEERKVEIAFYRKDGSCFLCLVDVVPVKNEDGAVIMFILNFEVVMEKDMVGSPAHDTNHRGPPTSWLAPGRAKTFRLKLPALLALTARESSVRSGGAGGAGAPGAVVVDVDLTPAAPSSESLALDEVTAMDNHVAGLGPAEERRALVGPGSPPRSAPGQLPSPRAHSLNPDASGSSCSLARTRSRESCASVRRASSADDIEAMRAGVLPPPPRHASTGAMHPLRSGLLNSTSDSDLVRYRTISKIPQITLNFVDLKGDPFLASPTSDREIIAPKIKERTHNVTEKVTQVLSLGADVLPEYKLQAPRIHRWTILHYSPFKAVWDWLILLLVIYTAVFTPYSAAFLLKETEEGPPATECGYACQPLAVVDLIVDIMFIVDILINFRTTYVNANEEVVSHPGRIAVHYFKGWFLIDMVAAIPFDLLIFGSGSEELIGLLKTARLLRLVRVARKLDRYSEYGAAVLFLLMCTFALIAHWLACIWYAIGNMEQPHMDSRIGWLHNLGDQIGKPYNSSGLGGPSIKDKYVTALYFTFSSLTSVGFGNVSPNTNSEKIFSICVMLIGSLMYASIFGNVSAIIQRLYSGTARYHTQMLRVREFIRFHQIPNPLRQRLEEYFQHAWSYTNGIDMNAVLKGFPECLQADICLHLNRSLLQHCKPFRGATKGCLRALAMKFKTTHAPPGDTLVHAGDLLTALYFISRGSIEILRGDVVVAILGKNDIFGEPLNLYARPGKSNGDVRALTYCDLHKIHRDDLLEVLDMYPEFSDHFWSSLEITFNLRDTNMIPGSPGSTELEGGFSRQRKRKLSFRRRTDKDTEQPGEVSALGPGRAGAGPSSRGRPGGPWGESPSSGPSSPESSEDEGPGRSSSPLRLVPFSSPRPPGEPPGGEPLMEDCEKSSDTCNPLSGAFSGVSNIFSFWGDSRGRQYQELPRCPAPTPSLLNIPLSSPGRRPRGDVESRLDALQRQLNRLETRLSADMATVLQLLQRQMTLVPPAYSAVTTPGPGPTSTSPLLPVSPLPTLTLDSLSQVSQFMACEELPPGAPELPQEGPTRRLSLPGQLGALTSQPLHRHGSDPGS

T2 sequence (P31751 whole entry): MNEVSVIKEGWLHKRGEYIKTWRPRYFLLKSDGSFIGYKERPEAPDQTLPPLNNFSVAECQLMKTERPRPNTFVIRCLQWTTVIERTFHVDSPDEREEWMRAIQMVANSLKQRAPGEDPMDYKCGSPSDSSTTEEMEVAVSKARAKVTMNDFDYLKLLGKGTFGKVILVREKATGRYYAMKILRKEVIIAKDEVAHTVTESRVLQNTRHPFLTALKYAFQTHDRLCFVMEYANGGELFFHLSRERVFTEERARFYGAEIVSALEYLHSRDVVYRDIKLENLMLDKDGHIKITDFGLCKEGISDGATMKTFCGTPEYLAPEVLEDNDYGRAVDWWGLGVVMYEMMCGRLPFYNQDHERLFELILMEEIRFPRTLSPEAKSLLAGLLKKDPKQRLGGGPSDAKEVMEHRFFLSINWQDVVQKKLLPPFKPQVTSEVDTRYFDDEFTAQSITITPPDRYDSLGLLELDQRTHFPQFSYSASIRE
T1 sequence (P31749 whole entry): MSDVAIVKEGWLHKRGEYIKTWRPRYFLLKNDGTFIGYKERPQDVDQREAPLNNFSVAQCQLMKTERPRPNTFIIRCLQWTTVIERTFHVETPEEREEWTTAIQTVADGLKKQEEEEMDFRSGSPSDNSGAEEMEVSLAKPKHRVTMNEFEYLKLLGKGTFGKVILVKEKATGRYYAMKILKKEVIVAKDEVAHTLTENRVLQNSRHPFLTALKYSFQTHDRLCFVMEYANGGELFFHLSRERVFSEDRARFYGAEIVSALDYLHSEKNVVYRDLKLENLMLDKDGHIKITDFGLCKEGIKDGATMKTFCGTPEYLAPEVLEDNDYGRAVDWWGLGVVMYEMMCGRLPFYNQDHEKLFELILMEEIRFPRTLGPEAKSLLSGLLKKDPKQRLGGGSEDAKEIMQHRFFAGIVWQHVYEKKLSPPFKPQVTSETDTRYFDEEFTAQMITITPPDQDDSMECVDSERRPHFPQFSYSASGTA

SMILES | pIC50 [1] | pIC50 [2] | pIC50 [3] | pIC50 [4] | pIC50 [5]
O=c1[nH]ccc2nc(-c3ccc(CN4CCC(c5nnc(-c6cnccn6)[nH]5)CC4)cc3)c(-c3ccccc3)cc12 | 7.36 | 6.39 | 8.40 | 7.68 | 
CN1CCN(c2ncc3cc(-c4ccccc4)c(-c4ccc(CN5CCC(c6nnc(-c7ccc(N)nc7)[nH]6)CC5)cc4)nc3n2)CC1 | 7.70 | 7.08 |  |  | 5.21
O=C1NCCc2nc(-c3ccc(CN4CCC(c5nnc(-c6ccccn6)[nH]5)CC4)cc3)c(-c3ccccc3)cc21 | 7.80 | 6.65 | 8.46 | 7.59 | 5.60
COc1ccc(-c2nnc(C3CCN(Cc4ccc(-c5nc6cc[nH]c(=O)c6cc5-c5ccccc5)cc4)CC3)[nH]2)cn1 | 7.40 | 6.80 | 8.52 | 7.80 | 5.91
O=c1[nH]ccc2nc(-c3ccc(CN4CCC(c5nnc(-c6ncccn6)[nH]5)CC4)cc3)c(-c3ccccc3)cc12 | 7.64 | 7.16 | 8.15 | 7.36 | < 5.00
[O-][n+]1ccc(-c2nnc(C3CCN(Cc4ccc(-c5nc6nc(N7CCN(CCO)CC7)ncc6cc5-c5ccccc5)cc4)CC3)[nH]2)cc1 | 7.17 | 6.84 |  |  | < 5.00
CN1CCN(c2ncc3cc(-c4ccccc4)c(-c4ccc(CN5CCC(c6nnc(-c7ccc(=O)[nH]c7)[nH]6)CC5)cc4)nc3n2)CC1 | 7.15 | 6.73 |  |  | 
CN1CCN(c2ncc3cc(-c4ccccc4)c(-c4ccc(CN5CCC(c6nnc(-c7ncccn7)[nH]6)CC5)cc4)nc3n2)CC1 | 7.60 | 7.40 |  |  | 
CN(C)CCN1CCN(c2ncc3cc(-c4ccccc4)c(-c4ccc(CN5CCC(c6nnc(-c7cc[n+]([O-])cc7)[nH]6)CC5)cc4)nc3n2)CC1 | 7.48 | 7.17 |  |  | 5.10
OCCN1CCN(c2ncc3cc(-c4ccccc4)c(-c4ccc(CN5CCC(c6nc(-c7ncccn7)n[nH]6)CC5)cc4)nc3n2)CC1 | 7.43 | 7.10 |  |  | < 5.00
O=c1ccc(-c2nnc(C3CCN(Cc4ccc(-c5nc6cc[nH]c(=O)c6cc5-c5ccccc5)cc4)CC3)[nH]2)c[nH]1 | 7.21 | 6.55 | 9.00 | 8.10 | < 5.00
O=c1ccc(-c2nnc(C3CCN(Cc4ccc(-c5nc6nc(N7CCN(CCO)CC7)ncc6cc5-c5ccccc5)cc4)CC3)[nH]2)c[nH]1 | 6.90 | 6.55 |  |  | 5.17
Nc1ccc(-c2nnc(C3CCN(Cc4ccc(-c5nc6cc[nH]c(=O)c6cc5-c5ccccc5)cc4)CC3)[nH]2)cn1 | 7.59 | 6.78 | 8.40 | 7.48 | 5.00
CN(C)CCN1CCN(c2ncc3cc(-c4ccccc4)c(-c4ccc(CN5CCC(c6nnc(-c7ccc(N)nc7)[nH]6)CC5)cc4)nc3n2)CC1 | 7.43 | 6.85 |  |  | 
CN(C)CCN1CCN(c2ncc3cc(-c4ccccc4)c(-c4ccc(CN5CCC(c6nnc(-c7ccc(=O)[nH]c7)[nH]6)CC5)cc4)nc3n2)CC1 | 7.16 | 7.01 |  |  | 6.10
Nc1ccc(-c2nnc(C3CCN(Cc4ccc(-c5nc6nc(N7CCN(CCO)CC7)ncc6cc5-c5ccccc5)cc4)CC3)[nH]2)cn1 | 7.42 | 6.74 |  |  | 
CN(C)CCN1CCN(c2ncc3cc(-c4ccccc4)c(-c4ccc(CN5CCC(c6nnc(-c7ncccn7)[nH]6)CC5)cc4)nc3n2)CC1 | 7.46 | 6.89 |  |  | 5.32
CN(C)CCN1CCN(c2ccc3nc(-c4ccccc4)c(-c4ccc(CN5CCC(c6nc(-c7ncccn7)n[nH]6)CC5)cc4)nc3n2)CC1 | 6.98 | 6.94 |  |  | < 5.00
CN1CCN(c2ncc3cc(-c4ccccc4)c(-c4ccc(CN5CCC(c6nnc(-c7cc[n+]([O-])cc7)[nH]6)CC5)cc4)nc3n2)CC1 | 7.06 | 6.73 |  |  | 5.01

More lines, main results first:

pIC50 [1] | pIC50 [2] | pIC50 [3] | pIC50 [4] | SMILES | pIC50 [5]
7.74 | 7.04 |  |  | CN1CCN(c2ccc3nc(-c4ccccc4)c(-c4ccc(CN5CCC(c6nnc(-c7ccccn7)[nH]6)CC5)cc4)nc3n2)CC1 | 
8.00 | 7.41 | 8.40 | 8.40 | CN(C)CCN1CCN(c2ncc3cc(-c4ccccc4)c(-c4ccc(CN5CCC(c6nnc(-c7ccccn7)[nH]6)CC5)cc4)nc3n2)CC1 | 5.68
6.94 | 6.64 |  |  | Nc1ccc(-c2nnc(C3CCN(Cc4ccc(-c5nc6nc(N7CCN(CCO)CC7)ccc6nc5-c5ccccc5)cc4)CC3)[nH]2)cn1 | 
7.89 | 7.32 |  |  | OCCN1CCN(c2ccc3nc(-c4ccccc4)c(-c4ccc(CN5CCC(c6nnc(-c7ccccn7)[nH]6)CC5)cc4)nc3n2)CC1 | 
5.85 | 6.08 |  |  | CN1CCN(c2ccc3nc(-c4ccc(CN5CCC(c6nnc(-c7ccccn7)[nH]6)CC5)cc4)c(-c4ccccc4)nc3n2)CC1 | 
8.00 | 7.37 |  |  | CN(C)CCN1CCN(c2ccc3nc(-c4ccccc4)c(-c4ccc(CN5CCC(c6nnc(-c7ccccn7)[nH]6)CC5)cc4)nc3n2)CC1 | 
7.15 | 6.65 |  |  | CN1CCN(c2ccc3nc(-c4ccccc4)c(-c4ccc(CN5CCC(c6nnc(-c7ccc(N)nc7)[nH]6)CC5)cc4)nc3n2)CC1 | 
7.14 | 6.72 |  |  | OCCN1CCN(c2ccc3nc(-c4ccccc4)c(-c4ccc(CN5CCC(c6nc(-c7ncccn7)n[nH]6)CC5)cc4)nc3n2)CC1 | 
7.28 | 6.72 |  |  | CN1CCN(c2ccc3nc(-c4ccccc4)c(-c4ccc(CN5CCC(c6nnc(-c7ncccn7)[nH]6)CC5)cc4)nc3n2)CC1 | 

Reference: ChEMBL document CHEMBL1157525, “The design and synthesis of potent and cell-active allosteric dual Akt 1 and 2 inhibitors devoid of hERG activity” (Bioorg Med Chem Lett, 2008)
